Assays:
human Gal-3 (hGal-3) = human Gal-3 (hGal-3) (Homo sapiens (Human), UniProt P17931); experiment: competitive binding assay: biotinylated hGal-3 binding to microplate-adsorbed asialofetuin (ASF); conditions: Gal-3 inhibition; binding of biotinylated hGal-3 to ASF; mean values; read-out: IC50
Method: If not explicitly mentioned otherwise, the inhibition data refer to the binding of biotinylated human Gal-3 (hGal-3).
(§1) Evaluation of Compound Inhibitory Activity (IC50)
The inhibitory activity of compounds is determined in competitive binding assays.
Briefly, compounds are serially diluted in DMSO (working dilutions).
(§2) Plates are incubated for 3 hours at 4° C., then washed with cold assay buffer (3×50 uL), incubated for 1 hour with 25 μL/well of a streptavidin-peroxidase solution (diluted in assay buffer to 80 ng/mL) at 4° C., followed by further washing steps with assay buffer (3×50 uL). Finally, 25 μL/well of ABTS substrate is added.
(§3) The calculated IC50 values may fluctuate depending on the daily assay performance. Fluctuations of this kind are known to those skilled in the art. IC50 values from several measurements are given as mean values.

human Gal-1 (hGal-1) = human Gal-1 (hGal-1) (Homo sapiens (Human), UniProt P09382); experiment: competitive binding assay: biotinylated hGal-1 binding to microplate-adsorbed asialofetuin (ASF); conditions: Table 15; read-out: IC50 (Galectin-1 inhibition)
human Gal-1 (hGal-1), sequence (P09382 whole entry): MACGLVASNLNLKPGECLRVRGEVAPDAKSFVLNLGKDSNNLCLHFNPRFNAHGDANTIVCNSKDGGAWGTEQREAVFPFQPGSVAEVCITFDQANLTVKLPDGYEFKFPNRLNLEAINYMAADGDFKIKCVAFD
Method: Inhibition data of the epimers R and S of selected Examples are also listed.
as §1
The inhibitory activity of compounds is determined in competitive binding assays. This spectrophotometric assay measures the binding of biotinylated human Gal-3 (hGal-3) or human Gal-1 (hGal-1), respectively, to a microplate-adsorbed glycoprotein, asialofetuin (ASF) (Proc Natl Acad Sci USA. 2013 Mar. 26; 110(13):5052-7.).
Briefly, compounds are serially diluted in DMSO (working dilutions). ASF-coated 384 well plates are supplemented with 22.8 μL/well of biotinylated hGal-3 or hGal-1 in assay buffer (i.e. 300-1000 ng/mL biotinylated hGal-3 or hGal-1) to which 1.2 μL of compound working dilutions are added and mixed.
as §2, §3

human Gal-3 (hGal-3), sequence (P17931 whole entry): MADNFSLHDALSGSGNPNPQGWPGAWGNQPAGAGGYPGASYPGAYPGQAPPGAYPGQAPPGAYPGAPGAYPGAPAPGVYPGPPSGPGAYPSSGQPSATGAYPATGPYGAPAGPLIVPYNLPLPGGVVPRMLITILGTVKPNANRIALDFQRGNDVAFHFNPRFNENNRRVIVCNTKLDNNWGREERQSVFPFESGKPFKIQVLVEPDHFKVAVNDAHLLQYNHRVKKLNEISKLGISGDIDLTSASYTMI

| Compound | IC50 (human Gal-3 (hGal-3)) [nM] | IC50 (human Gal-1 (hGal-1)) [nM] |
| --- | --- | --- |
| CCc1ccccc1C(S[C@@H]1O[C@H](CO)[C@H](O)[C@H](n2cc(-c3cc(F)c(F)c(F)c3)nn2)[C@H]1O)C(C)(C)O (stereo partly drawn) [Example 2.31.103., (2S,3R,4S,5R,6R)-2-((1-(2-Ethylphenyl)-2-hydroxy-2-methylpropyl)thio)-6-(hydroxymethyl)-4-(4-(3,4,5-trifluorophenyl)-1H-1,2,3-triazol-1-yl)tetrahydro-2H-pyran-3,5-diol] | 300 | 1230 |
| CC(C)c1ccccc1[C@H](S[C@@H]1O[C@H](CO)[C@H](O)[C@H](n2cc(-c3cc(F)c(F)c(F)c3)nn2)[C@H]1O)C(C)(C)O [Example 2.31.105S., (2S,3R,4S,5R,6R)-2-(((S)-2-Hydroxy-1-(2-isopropylphenyl)-2-methylpropyl)thio)-6-(hydroxymethyl)-4-(4-(3,4,5-trifluorophenyl)-1H-1,2,3-triazol-1-yl)tetrahydro-2H-pyran-3,5-diol] | 8300 | 65100 |
| CC(C)(O)[C@@H](S[C@@H]1O[C@H](CO)[C@H](O)[C@H](n2cc(-c3cc(F)c(F)c(F)c3)nn2)[C@H]1O)c1ccccc1C1CC1 [Example 2.31.106S., (2S,3R,4S,5R,6R)-2-(((S)-1-(2-cyclopropylphenyl)-2-hydroxy-2-methylpropyl)thio)-6-(hydroxymethyl)-4-(4-(3,4,5-trifluorophenyl)-1H-1,2,3-triazol-1-yl)tetrahydro-2H-pyran-3,5-diol] | 15900 | 65000 |
| CC(C)Cc1ccccc1[C@H](S[C@@H]1O[C@H](CO)[C@H](O)[C@H](n2cc(-c3cc(F)c(F)c(F)c3)nn2)[C@H]1O)C(C)(C)O [Example 2.31.107S., (2S,3R,4S,5R,6R)-2-(((S)-2-hydroxy-1-(2-isobutylphenyl)-2-methylpropyl)thio)-6-(hydroxymethyl)-4-(4-(3,4,5-trifluorophenyl)-1H-1,2,3-triazol-1-yl)tetrahydro-2H-pyran-3,5-diol] | 950 | 56600 |
| CC(C)(O)C(S[C@@H]1O[C@H](CO)[C@H](O)[C@H](n2cc(-c3cc(F)c(F)c(F)c3)nn2)[C@H]1O)c1ccccc1CCO (stereo partly drawn) [Example 2.31.108., (2S,3R,4S,5R,6R)-2-((2-Hydroxy-1-(2-(2-hydroxyethyl)phenyl)-2-methylpropyl)thio)-6-(hydroxymethyl)-4-(4-(3,4,5-trifluorophenyl)-1H-1,2,3-triazol-1-yl)tetrahydro-2H-pyran-3,5-diol] | 380 | 21200 |
| CC(C)(O)[C@H](S[C@@H]1O[C@H](CO)[C@H](O)[C@H](n2cc(-c3cc(F)c(F)c(F)c3)nn2)[C@H]1O)c1ccccc1CCO [Example 2.31.108R., (2S,3R,4S,5R,6R)-2-(((R)-2-Hydroxy-1-(2-(2-hydroxyethyl)phenyl)-2-methylpropyl)thio)-6-(hydroxymethyl)-4-(4-(3,4,5-trifluorophenyl)-1H-1,2,3-triazol-1-yl)tetrahydro-2H-pyran-3,5-diol] | 270 | 390 |
| CC(C)(O)[C@@H](S[C@@H]1O[C@H](CO)[C@H](O)[C@H](n2cc(-c3cc(F)c(F)c(F)c3)nn2)[C@H]1O)c1ccccc1CCO [Example 2.31.108S., (2S,3R,4S,5R,6R)-2-(((S)-2-Hydroxy-1-(2-(2-hydroxyethyl)phenyl)-2-methylpropyl)thio)-6-(hydroxymethyl)-4-(4-(3,4,5-trifluorophenyl)-1H-1,2,3-triazol-1-yl)tetrahydro-2H-pyran-3,5-diol] | 8100 | 25800 |
| CCCCCc1ccccc1C(S[C@@H]1O[C@H](CO)[C@H](O)[C@H](n2cc(-c3cc(F)c(F)c(F)c3)nn2)[C@H]1O)C(C)(C)O (stereo partly drawn) [Example 2.31.109., (2S,3R,4S,5R,6R)-2-((2-Hydroxy-2-methyl-1-(2-pentylphenyl)propyl)thio)-6-(hydroxymethyl)-4-(4-(3,4,5-trifluorophenyl)-1H-1,2,3-triazol-1-yl)tetrahydro-2H-pyran-3,5-diol] | 540 | 3230 |
| CC(C)(O)[C@@H](S[C@@H]1O[C@H](CO)[C@H](O)[C@H](n2cc(-c3cc(F)c(F)c(F)c3)nn2)[C@H]1O)c1ccccc1-c1ccccc1 [Example 2.31.110S., (2S,3R,4S,5R,6R)-2-(((S)-1-([1,1′-Biphenyl]-2-yl)-2-hydroxy-2-methylpropyl)thio)-6-(hydroxymethyl)-4-(4-(3,4,5-trifluorophenyl)-1H-1,2,3-triazol-1-yl)tetrahydro-2H-pyran-3,5-diol] | 4900 | 16700 |

These reach a lower IC50 (human Gal-3 (hGal-3)). Values come first.

| IC50 (human Gal-3 (hGal-3)) [nM] | IC50 (human Gal-1 (hGal-1)) [nM] | Compound |
| --- | --- | --- |
| 260 | 240 | CC(C)Cc1ccccc1C(S[C@@H]1O[C@H](CO)[C@H](O)[C@H](n2cc(-c3cc(F)c(F)c(F)c3)nn2)[C@H]1O)C(C)(C)O (stereo partly drawn) [Example 2.31.107., (2S,3R,4S,5R,6R)-2-((2-Hydroxy-1-(2-isobutylphenyl)-2-methylpropyl)thio)-6-(hydroxymethyl)-4-(4-(3,4,5-trifluorophenyl)-1H-1,2,3-triazol-1-yl)tetrahydro-2H-pyran-3,5-diol] |
| 220 | 280 | CC(C)(O)[C@H](S[C@@H]1O[C@H](CO)[C@H](O)[C@H](n2cc(-c3cc(F)c(F)c(F)c3)nn2)[C@H]1O)c1ccccc1-c1ccccc1 [Example 2.31.110R., (2S,3R,4S,5R,6R)-2-(((R)-1-([1,1′-Biphenyl]-2-yl)-2-hydroxy-2-methylpropyl)thio)-6-(hydroxymethyl)-4-(4-(3,4,5-trifluorophenyl)-1H-1,2,3-triazol-1-yl)tetrahydro-2H-pyran-3,5-diol] |
| 200 | 340 | CC(C)(O)C(S[C@@H]1O[C@H](CO)[C@H](O)[C@H](n2cc(-c3cc(F)c(F)c(F)c3)nn2)[C@H]1O)c1ccccc1C1CC1 (stereo partly drawn) [Example 2.31.106., (2S,3R,4S,5R,6R)-2-((1-(2-Cyclopropylphenyl)-2-hydroxy-2-methylpropyl)thio)-6-(hydroxymethyl)-4-(4-(3,4,5-trifluorophenyl)-1H-1,2,3-triazol-1-yl)tetrahydro-2H-pyran-3,5-diol] |
| 200 | 300 | CC(C)Cc1ccccc1[C@@H](S[C@@H]1O[C@H](CO)[C@H](O)[C@H](n2cc(-c3cc(F)c(F)c(F)c3)nn2)[C@H]1O)C(C)(C)O [Example 2.31.107R., (2S,3R,4S,5R,6R)-2-(((R)-2-hydroxy-1-(2-isobutylphenyl)-2-methylpropyl)thio)-6-(hydroxymethyl)-4-(4-(3,4,5-trifluorophenyl)-1H-1,2,3-triazol-1-yl)tetrahydro-2H-pyran-3,5-diol] |
| 180 | 300 | CC(C)c1ccccc1C(S[C@@H]1O[C@H](CO)[C@H](O)[C@H](n2cc(-c3cc(F)c(F)c(F)c3)nn2)[C@H]1O)C(C)(C)O (stereo partly drawn) [Example 2.31.105., (2S,3R,4S,5R,6R)-2-((2-Hydroxy-1-(2-isopropylphenyl)-2-methylpropyl)thio)-6-(hydroxymethyl)-4-(4-(3,4,5-trifluorophenyl)-1H-1,2,3-triazol-1-yl)tetrahydro-2H-pyran-3,5-diol] |
| 180 | 400 | CC(C)(O)C(S[C@@H]1O[C@H](CO)[C@H](O)[C@H](n2cc(-c3cc(F)c(F)c(F)c3)nn2)[C@H]1O)c1ccccc1-c1ccccc1 (stereo partly drawn) [Example 2.31.110., (2S,3R,4S,5R,6R)-2-((1-([1,1′-Biphenyl]-2-yl)-2-hydroxy-2-methylpropyl)thio)-6-(hydroxymethyl)-4-(4-(3,4,5-trifluorophenyl)-1H-1,2,3-triazol-1-yl)tetrahydro-2H-pyran-3,5-diol] |
| 170 | 600 | CCCc1ccccc1C(S[C@@H]1O[C@H](CO)[C@H](O)[C@H](n2cc(-c3cc(F)c(F)c(F)c3)nn2)[C@H]1O)C(C)(C)O (stereo partly drawn) [Example 2.31.104., (2S,3R,4S,5R,6R)-2-((2-Hydroxy-2-methyl-1-(2-propylphenyl)propyl)thio)-6-(hydroxymethyl)-4-(4-(3,4,5-trifluorophenyl)-1H-1,2,3-triazol-1-yl)tetrahydro-2H-pyran-3,5-diol] |
| 140 | 210 | CC(C)(O)[C@H](S[C@@H]1O[C@H](CO)[C@H](O)[C@H](n2cc(-c3cc(F)c(F)c(F)c3)nn2)[C@H]1O)c1ccccc1C1CC1 [Example 2.31.106R., (2S,3R,4S,5R,6R)-2-(((R)-1-(2-cyclopropylphenyl)-2-hydroxy-2-methylpropyl)thio)-6-(hydroxymethyl)-4-(4-(3,4,5-trifluorophenyl)-1H-1,2,3-triazol-1-yl)tetrahydro-2H-pyran-3,5-diol] |
| 60 | 160 | CC(C)c1ccccc1[C@@H](S[C@@H]1O[C@H](CO)[C@H](O)[C@H](n2cc(-c3cc(F)c(F)c(F)c3)nn2)[C@H]1O)C(C)(C)O [Example 2.31.105R., (2S,3R,4S,5R,6R)-2-(((R)-2-Hydroxy-1-(2-isopropylphenyl)-2-methylpropyl)thio)-6-(hydroxymethyl)-4-(4-(3,4,5-trifluorophenyl)-1H-1,2,3-triazol-1-yl)tetrahydro-2H-pyran-3,5-diol] |
